Patent US11691898B2, “Water treatment” (ITALMATCH CHEMICALS GB LIMITED, priority 2016, dated 2023)

Columns and labels:
Desulfovibrio vulgaris = experiment: Log10 reduction in viable count of anaerobic bacteria in a high-TDS aqueous suspension; type: cell-based; details: for Log10 Reduction Anaerobes*: pH 8.0, TDS 30,000 mg l^-1, versus control, 5 = complete kill, ppm active as per example; for effectiveness against anaerobes (in words): alone
Protocol: (§1) Aqueous systems inoculated with anaerobe and facultative anaerobe culture and having a total dissolved solids (TDS) concentration of 30,000 mg l^−1 were prepared and treated with treatment agents comprising: (a) tri n-butyl n-tetradecyl phosphonium chloride (TTPC) and (b) NaClO2.
(§2) A suspension of Desulfovibrio vulgaris plus Enterobacter aerogenes bacteria containing from 1×10^5 to 1×10^6 cells/mL was prepared in sterile pH 8 phosphate buffer containing sodium chloride to give the desired total dissolved solids (TDS) concentration. Aliquots of this suspension were dosed with the indicated concentrations of the compounds (a) and (b) with the concentrations being measured as ppm active. The mixtures were allowed to stand at room temperature. At the designated contact times, each mixture was sampled to determine the total number of viable cells of both Desulfovibrio vulgaris and Enterobacter aerogenes by serial 10-fold dilution into API RP 38 media vials and anaerobic acid producing media vials, respectively. The vials were incubated at 37° C. for 72 hours. Results were recorded as log10 reduction in the viable count versus the control.
(§3) The efficacy of the treatment agents was evaluated by measuring the Log10 Reduction of the anaerobic bacterium Desulfovibrio vulgaris and the facultative anaerobic bacterium Enterobacter aerogenes after contact times of 1 hour, 4 hours and 24 hours as detailed in Table 1. For TTPC the stated ppm value relates to the amount of TTPC added (active). For NaClO2 the stated ppm relates to the amount of NaClO2 added (active).

Enterobacter aerogenes = experiment: Log10 reduction in viable count of facultative anaerobic bacteria in a high-TDS aqueous suspension; type: cell-based; details: pH 8.0, TDS 30,000 mg l^-1, versus control, 6 = complete kill, ppm active as per example
Protocol: as §1, §2, §3

SMILES: CCCCCCCCCCCCCC[P+](CCCC)(CCCC)CCCC.[Cl-] [18(comparative), tri n-butyl n-tetradecyl phosphonium chloride]
- Log10 Reduction Anaerobes* (Desulfovibrio vulgaris; contact time 24 hours): 5
- Log10 Reduction Facultative Anaerobes** (Enterobacter aerogenes; contact time 24 hours): 6

SMILES: CCCCCCCCCCCCCC[P+](CCCC)(CCCC)CCCC.[Cl-] [17(comparative), tri n-butyl n-tetradecyl phosphonium chloride]
- Log10 Reduction Anaerobes* (Desulfovibrio vulgaris; contact time 24 hours): 5
- Log10 Reduction Facultative Anaerobes** (Enterobacter aerogenes; contact time 24 hours): 5

SMILES: [Na+].[O-][Cl+][O-] [4(comparative), NaClO2]
- Log10 Reduction Anaerobes* (Desulfovibrio vulgaris; contact time 1 hour): 0
- Log10 Reduction Facultative Anaerobes** (Enterobacter aerogenes; contact time 1 hour): 0

SMILES: [Na+].[O-][Cl+][O-] [11(comparative), NaClO2]
- Log10 Reduction Anaerobes* (Desulfovibrio vulgaris; contact time 4 hours): 0
- Log10 Reduction Facultative Anaerobes** (Enterobacter aerogenes; contact time 4 hours): 0

SMILES: [Na+].[O-][Cl+][O-] [NaClO2]
- effectiveness against anaerobes (in words) (Desulfovibrio vulgaris; longer contact times): limited effectiveness
- effectiveness against anaerobes (in words) (Desulfovibrio vulgaris; short contact times): ineffective

SMILES: CCCCCCCCCCCCCC[P+](CCCC)(CCCC)CCCC.[Cl-] [2(comparative), tri n-butyl n-tetradecyl phosphonium chloride]
- Log10 Reduction Anaerobes* (Desulfovibrio vulgaris; contact time 1 hour): 5
- Log10 Reduction Facultative Anaerobes** (Enterobacter aerogenes; contact time 1 hour): 3

SMILES: CCCCCCCCCCCCCC[P+](CCCC)(CCCC)CCCC.[Cl-] [10(comparative), tri n-butyl n-tetradecyl phosphonium chloride]
- Log10 Reduction Anaerobes* (Desulfovibrio vulgaris; contact time 4 hours): 5
- Log10 Reduction Facultative Anaerobes** (Enterobacter aerogenes; contact time 4 hours): 4

SMILES: CCCCCCCCCCCCCC[P+](CCCC)(CCCC)CCCC.[Cl-] [9(comparative), tri n-butyl n-tetradecyl phosphonium chloride]
- Log10 Reduction Anaerobes* (Desulfovibrio vulgaris; contact time 4 hours): 5
- Log10 Reduction Facultative Anaerobes** (Enterobacter aerogenes; contact time 4 hours): 3

SMILES: CCCCCCCCCCCCCC[P+](CCCC)(CCCC)CCCC.[Cl-] [1(comparative), tri n-butyl n-tetradecyl phosphonium chloride]
- Log10 Reduction Anaerobes* (Desulfovibrio vulgaris; contact time 1 hour): 2
- Log10 Reduction Facultative Anaerobes** (Enterobacter aerogenes; contact time 1 hour): 0

SMILES: [Na+].[O-][Cl+][O-] [12(comparative), NaClO2]
- Log10 Reduction Anaerobes* (Desulfovibrio vulgaris; contact time 4 hours): 1
- Log10 Reduction Facultative Anaerobes** (Enterobacter aerogenes; contact time 4 hours): 0

SMILES: [Na+].[O-][Cl+][O-] [19(comparative), NaClO2]
- Log10 Reduction Anaerobes* (Desulfovibrio vulgaris; contact time 24 hours): 4
- Log10 Reduction Facultative Anaerobes** (Enterobacter aerogenes; contact time 24 hours): 0
